# Target: T1, PROBABLE TRANSMEMBRANE CARBONIC ANHYDRASE (CARBONATE DEHYDRATASE) (CARBONIC DEHYDRATASE) (Mycobacterium tuberculosis, UniProt P96878)
# T1 sequence (P96878 whole entry): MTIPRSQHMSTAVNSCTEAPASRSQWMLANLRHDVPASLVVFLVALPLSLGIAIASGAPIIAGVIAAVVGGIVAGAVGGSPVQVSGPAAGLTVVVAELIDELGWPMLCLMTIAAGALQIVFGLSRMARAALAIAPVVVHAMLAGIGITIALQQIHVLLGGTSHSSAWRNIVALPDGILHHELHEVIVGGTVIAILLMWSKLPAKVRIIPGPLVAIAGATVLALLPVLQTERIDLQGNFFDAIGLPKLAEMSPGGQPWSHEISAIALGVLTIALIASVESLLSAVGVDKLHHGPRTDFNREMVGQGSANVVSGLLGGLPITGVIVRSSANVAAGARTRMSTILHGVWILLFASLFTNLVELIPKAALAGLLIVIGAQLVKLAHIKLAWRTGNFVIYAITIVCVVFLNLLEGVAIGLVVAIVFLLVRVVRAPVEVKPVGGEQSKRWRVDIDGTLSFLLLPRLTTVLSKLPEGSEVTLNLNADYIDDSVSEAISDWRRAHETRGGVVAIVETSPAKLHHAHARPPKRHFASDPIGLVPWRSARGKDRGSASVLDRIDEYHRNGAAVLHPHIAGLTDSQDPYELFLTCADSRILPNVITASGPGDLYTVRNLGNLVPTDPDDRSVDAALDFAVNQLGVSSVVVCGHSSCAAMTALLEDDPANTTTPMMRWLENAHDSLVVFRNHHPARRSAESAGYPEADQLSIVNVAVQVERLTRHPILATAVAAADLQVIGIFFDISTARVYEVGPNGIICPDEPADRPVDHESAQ
smiles,measurement,value
Nc1ccc(S(N)(=O)=O)cc1 [SULFANILAMIDE],Ki,6.24 µM
